From US9533972B2, “Substituted sodium-1H-pyrazole-5-olate” (Bayer Intellectual Property GmbH, priority 2010, dated 2017)

Columns and labels:
[1] = Vapour adsorption and vapour desorption (moisture sorption isotherm); format: physicochemical; settings: 25° C.
Protocol: The moisture sorption isotherm was recorded using a Dynamic Vapour Sorption Analyzer IGA Sorp from Hiden Analytical. The measuring temperature was 25° C. There was no sample preparation.

Solubility in water = format: physicochemical; settings: comparison in words
Protocol: Method: Saturated solutions of the test substance were prepared by stirring a suspension in water at 25° C. for 16 hours. The suspensions obtained were then filtered, and the content in the filtrate was determined by HPLC.

[2] = Water uptake / hygroscopicity at customary environmental conditions; format: physicochemical
Protocol: The compound of the formula (I) is hygroscopic and, at customary environmental conditions (20-35° C., atmospheric pressure), takes up up to about 6% by weight of water even at a relative atmospheric humidity above 20% rh. At an atmospheric humidity of 30% rh, the uptake of 6% by weight of water is almost complete. If the atmospheric humidity decreases below 30% rh, the compound of the formula (I) releases part of the water it comprises. This uptake of water or release of water renders handling of the compound of the formula (I), for example weighing operations, and the production of the compound of the formula (I) in a uniform, stable and definined form for use in medicaments or the production of medicaments comprising compound of the formula (I) more difficult. In particular, this increases the technical expenditure during the production of administration forms comprising the compound of the formula (I), such as, for example, tablets, granules or drink solutions, since measures for controlling and regulating atmospheric humidity are required to maintain a uniform concentration of the compound of the formula (I). […]

[3] = tested on: recombinant A549 cell line with luciferase reporter under hypoxia-responsible elements; test: Cellular, functional in vitro test (luciferase reporter under hypoxia-responsible elements); format: cell-based; settings: Homo sapiens; A549-derived luciferase reporter cell line
Text: The activity of the compounds according to the invention is quantified with the aid of a recombinant cell line. The cell is originally derived from a human lung carcinoma cell line (A549, ATCC: American Type Culture Collection, Manassas, Va. 20108, USA). The test cell line is transfected in a stable manner with a vector which contains the reporter gene of Photinus pyralis luciferase (called luciferase in the following) under the control of an artificial minimal promoter. The minimal promoter comprises two hypoxia-responsible elements upstream of a TATA box [Oehme F., Ellinghaus P., Kolkhof P., Smith T. J., Ramakrishnan S., Hatter J., Schramm M., Flamme I., Biochem. Biophys. Res. Commun. 296 (2), 343-9 (2002)]. Under the effect of hypoxia (e.g. culturing in the presence of 1% oxygen for 24 hours) or under the action of non-selective dioxygenase inhibitors (e.g. desferroxamine in a concentration of 100 μM, cobalt chloride in a concentration of 100 μM or N-oxalylglycine diethyl ester in a concentration of 1 mM), the test cell line produces luciferase, which can be detected and quantified with the aid of suitable bioluminescence reagents (e.g. Steady-Glo® Luciferase Assay System, Promega Corporation, Madison, Wis. 53711, USA) and a suitable luminometer. […]

Row | Desorption ([1]; 5% rh) | solubility in water compared to the compound of the formula (I) (Solubility in water) | water comprised [2] | Adsorption ([1]; 0% rh) [%] | Desorption ([1]; 0% rh) [%] | Adsorption ([1]; 10% rh) [%] | Desorption ([1]; 10% rh) [%] | Desorption ([1]; 20% rh) [%] | EC50 [3] [µM] | SMILES
1 | 0.1% (5% rh) |  |  |  |  |  |  |  |  | Oc1c(-n2ccnn2)cnn1-c1cc(N2CCOCC2)ncn1 [Compound of the formula (I), 1-[6-(morpholin-4-yl)pyrimidin-4-yl]-4-(1H-1,2,3-triazol-1-yl)-1H-pyrazol-5-ol, reference compound]
2 |  | higher solubility in water | less than 0.5 % by weight | 0 | 0 | 0 | 0 | 0 | 7 | [Na+].[O-]c1c(-n2ccnn2)cnn1-c1cc(N2CCOCC2)ncn1 [Compound of the formula (II), sodium 1-[6-(morpholin-4-yl)pyrimidin-4-yl]-4-(1H-1,2,3-triazol-1-yl)-1H-pyrazol-5-olate]
